According to US20240376056A1, “PHENYL ACETAMIDE BASED IL-17A MODULATORS AND USES THEREOF” (DiCE Alpha, Inc., priority 2021, published 2024):

Each molecule was assayed against T1, IL-17A/A (Homo sapiens, UniProt Q16552) (assay: HEK-Blue IL-17A/A inhibition assay (SEAP reporter)). Conditions: HEK-Blue cells (HEK 293 expressing IL-17RA, IL-17RC, Act1); IL-17A/A stimulation; 20 hours; SEAP read at A630; 4-parameter fit.
T1 construct: purchased Genscript Z03228
T1 sequence (Q16552 24-155): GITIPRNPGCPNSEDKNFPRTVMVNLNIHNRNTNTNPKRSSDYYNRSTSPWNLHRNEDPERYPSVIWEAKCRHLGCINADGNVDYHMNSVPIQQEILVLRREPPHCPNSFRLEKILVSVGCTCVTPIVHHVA
Format: cell-based
Method in brief: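 HEK 293 cells engineered with IL-17RA, IL-17RC and Act1 (NFκB-driven SEAP) given titrated compound (top final 10, 1 or 0.3 uM; 0.1% DMSO) just before IL-17A/A, then incubated 20 h. SEAP in media developed with Quanti-Blue, read at A630; IC50 by 4-parameter nonlinear fit.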

| SMILES | IC50 |
| --- | --- |
| CCn1nccc1C(=O)N[C@H](C(=O)Nc1ccc([C@H](C)C(=O)N(CC2CC2)CC(F)(F)F)cc1F)C1CCCCCC1 [Compound 8, N-((S)-1-cycloheptyl-2-((4-((S)-1-((cyclopropylmethyl)(2,2,2-trifluoroethyl)amino)-1-oxopropan-2-yl)-2-fluorophenyl)amino)-2-oxoethyl)-1-ethyl-1H-pyrazole-5-carboxamide] | < 100 nM |
| CCn1nccc1C(=O)N[C@H](C(=O)Nc1ccc([C@H](C)C(=O)N2CCC[C@@H]2C(F)(F)F)cc1F)C(C1CC1)C1CC1 [Compound 9, N-((S)-1,1-dicyclopropyl-3-((2-fluoro-4-((S)-1-oxo-1-((R)-2-(trifluoromethyl)pyrrolidin-1-yl)propan-2-yl)phenyl)amino)-3-oxopropan-2-yl)-1-ethyl-1H-pyrazole-5-carboxamide] | > 1000 nM |
| CCn1nccc1C(=O)N[C@H](C(=O)Nc1ccc([C@H](C)C(=O)N(CCO)CC(F)(F)F)cc1F)C(C1CC1)C1CC1 [Compound 10, N-((S)-1,1-dicyclopropyl-3-((2-fluoro-4-((S)-1-((2-hydroxyethyl)(2,2,2-trifluoroethyl)amino)-1-oxopropan-2-yl)phenyl)amino)-3-oxopropan-2-yl)-1-ethyl-1H-pyrazole-5-carboxamide] | 100 to 1000 nM |
| CCn1nccc1C(=O)N[C@H](C(=O)Nc1ccc([C@H](C)C(=O)N2CCC[C@H]2C(F)(F)F)cc1F)C(C1CC1)C1CC1 [Compound 11, N-((S)-1,1-dicyclopropyl-3-((2-fluoro-4-((S)-1-oxo-1-((S)-2-(trifluoromethyl)pyrrolidin-1-yl)propan-2-yl)phenyl)amino)-3-oxopropan-2-yl)-1-ethyl-1H-pyrazole-5-carboxamide] | < 100 nM |
| CCn1nccc1C(=O)N[C@H](C(=O)Nc1ccc([C@H](C)C(=O)NC(CCO)C(F)(F)F)cc1F)C(C1CC1)C1CC1 (stereo partly drawn) [Compound 12, N-((2S)-1,1-dicyclopropyl-3-((2-fluoro-4-((2S)-1-oxo-1-((1,1,1-trifluoro-4-hydroxybutan-2-yl)amino)propan-2-yl)phenyl)amino)-3-oxopropan-2-yl)-1-ethyl-1H-pyrazole-5-carboxanude] | 100 to 1000 nM |
| CCn1nccc1C(=O)N[C@H](C(=O)Nc1ccc([C@H](C)C(=O)N2CC(F)(F)C2)cc1F)C(C1CC1)C1CC1 [Compound 15, N-((S)-1,1-dicyclopropyl-3-((4-((S)-1-(3,3-difluoroazetidin-1-yl)-1-oxopropan-2-yl)-2-fluorophenyl)amino)-3-oxopropan-2-yl)-1-ethyl-1H-pyrazole-5-carboxamide] | 100 to 1000 nM |
| CC(C)n1nccc1C(=O)N[C@H](C(=O)Nc1ccc([C@H](C)C(=O)NC2CC2)cc1F)C(C1CC1)C1CC1 [Compound 16, N-((S)-1,1-dicyclopropyl-3-((4-((S)-1-(cyclopropylamino)-1-oxopropan-2-yl)-2-fluorophenyl)amino)-3-oxopropan-2-yl)-1-isopropyl-1H-pyrazole-5-carboxamide] | > 1000 nM |
| CC(C)n1nccc1C(=O)N[C@H](C(=O)Nc1ccc([C@H](C)C(=O)NCC(F)F)cc1F)C(C1CC1)C1CC1 [Compound 17, N-((S)-1,1-dicyclopropyl-3-((4-((S)-1-((2,2-difluoroethyl)amino)-1-oxopropan-2-yl)-2-fluorophenyl)amino)-3-oxopropan-2-yl)-1-isopropyl-1H-pyrazole-5-carboxanide] | 100 to 1000 nM |
| CNCCN(CC(F)(F)F)C(=O)[C@@H](C)c1ccc(NC(=O)[C@@H](NC(=O)c2ccnn2C(C)C)C(C2CC2)C2CC2)c(F)c1 [Compound 22, N-((S)-1,1-dicyclopropyl-3-((2-fluoro-4-((S)-1-((2-(methylamino)ethyl)(2,2,2-trifluoroethyl)amino)-1-oxopropan-2-yl)phenyl)amino)-3-oxopropan-2-yl)-1-isopropyl-1H-pyrazole-5-carboxamide] | 100 to 1000 nM |
| [2H]C([2H])([2H])N(CC(F)(F)F)C(=O)[C@@H](C)c1ccc(NC(=O)[C@@H](NC(=O)c2ccnn2C(C)C)C(C2CC2)C2CC2)c(F)c1 [Compound 23, N-((S)-1,1-dicyclopropyl-3-((2-fluoro-4-((S)-1-((methyl-d3)(2,2,2-trifluoroethyl)amino)-1-oxopropan-2-yl)phenyl)amino)-3-oxopropan-2-yl)-1-isopropyl-1H-pyrazole-5-carboxamide] | 100 to 1000 nM |
| CC(C)n1nccc1C(=O)N[C@H](C(=O)Nc1ccc([C@H](C)C(=O)N2CCN(CC(F)(F)F)CC2)cc1F)C(C1CC1)C1CC1 [Compound 24, N-((S)-1.1-dicyclopropyl-3-((2-fluoro-4-((S)-1-oxo-1-(4-(2,2,2-trifluoroethyl)piperazin-1-yl)propan-2-yl)phenyl)amino)-3-oxopropan-2-yl)-1-isopropyl-1H-pyrazole-5-carboxamide] | 100 to 1000 nM |
| CC(C)n1nccc1C(=O)N[C@H](C(=O)Nc1ccc([C@H](C)C(=O)NC2CC2C(F)F)cc1F)C(C1CC1)C1CC1 (stereo partly drawn) [Compound 25, N-((2S)-1.1-dicyclopropyl-3-((4-((2S)-1-((2-(difluoromethyl)cyclopropyl)amino)-1-oxopropan-2-yl)-2-fluorophenyl)amino)-3-oxopropan-2-yl)-1-isopropyl-1H-pyrazole-5-carboxamide] | 100 to 1000 nM |
| CC(C)n1nccc1C(=O)N[C@H](C(=O)Nc1ccc([C@H](C)C(=O)NC(C2CC2)C(F)(F)F)cc1F)C(C1CC1)C1CC1 (stereo partly drawn) [Compound 26, N-((2S)-1,1-dicyclopropyl-3-((4-((2S)-1-((1-cyclopropyl-2,2,2-trifluoroethyl)amino)-1-oxopropan-2-yl)-2-fluorophenyl)amino)-3-oxopropan-2-yl)-1-isopropyl-1H-pyrazole-5-carboxamide] | 100 to 1000 nM |
| CC(C)n1nccc1C(=O)N[C@H](C(=O)Nc1ccc([C@H](C)C(=O)NC(Cc2ccccn2)C(F)(F)F)cc1F)C(C1CC1)C1CC1 (stereo partly drawn) [Compound 27, N-((2S)-1,1-dicyclopropyl-3-((2-fluoro-4-((2S)-1-oxo-1-((1,1,1-trifluoro-3-(pyridin-2-yl)propan-2-yl)amino)propan-2-yl)phenyl)amino)-3-oxopropan-2-yl)-1-isopropyl-1H-pyrazole-5-carboxamide] | > 1000 nM |
| CC(C)n1nccc1C(=O)N[C@H](C(=O)Nc1ccc([C@H](C)C(=O)N2CCC(F)(F)C2)cc1F)C(C1CC1)C1CC1 [Compound 30] | 100 to 1000 nM |
| CC(C)n1nccc1C(=O)N[C@H](C(=O)Nc1ccc([C@H](C)C(=O)N2C[C@@H](O)[C@@H](F)C2)cc1F)C(C1CC1)C1CC1 [Compound 31, N-((S)-1.1-dicyclopropyl-3-((2-fluoro-4-((S)-1-((3S,4R)-3-fluoro-4-hydroxypyrrolidin-1-yl)-1-oxopropan-2-yl)phenyl)amino)-3-oxopropan-2-yl)-1-isopropyl-1H-pyrazole-5-carboxamide] | > 1000 nM |
| CC(C)n1nccc1C(=O)N[C@H](C(=O)Nc1ccc([C@H](C)C(=O)NCC(N(C)C)C(F)(F)F)cc1F)C(C1CC1)C1CC1 (stereo partly drawn) [Compound 32, N-((2S)-1.1-dicyclopropyl-3-((4-((2S)-1-((2-(dimethylamino)-3,3,3-trifluoropropyl)amino)-1-oxopropan-2-yl)-2-fluorophenyl)amino)-3-oxopropan-2-yl)-1-isopropyl-1H-pyrazole-5-carboxamide] | > 1000 nM |
